Laboratory results from publication PMC8185074, “Anchor extension: a structure-guided approach to design cyclic peptides targeting enzyme active sites” (Nature Communications, 2021).
Peptide text beside a SMILES is read from it.

Columns and labels:
Assay type in all cases: biochemical
HDAC6 = molecular target: T1, HDAC6 (Homo sapiens, UniProt Q9UBN7); test: HDAC6 inhibition, full IC50 measurement (Reaction Biology; fluorogenic p53 peptide RHKK(Ac)AMC)
T1 construct: purchased Reaction Biology Corporation (assay run by the CRO)
T1 sequence (Q9UBN7 1-1215): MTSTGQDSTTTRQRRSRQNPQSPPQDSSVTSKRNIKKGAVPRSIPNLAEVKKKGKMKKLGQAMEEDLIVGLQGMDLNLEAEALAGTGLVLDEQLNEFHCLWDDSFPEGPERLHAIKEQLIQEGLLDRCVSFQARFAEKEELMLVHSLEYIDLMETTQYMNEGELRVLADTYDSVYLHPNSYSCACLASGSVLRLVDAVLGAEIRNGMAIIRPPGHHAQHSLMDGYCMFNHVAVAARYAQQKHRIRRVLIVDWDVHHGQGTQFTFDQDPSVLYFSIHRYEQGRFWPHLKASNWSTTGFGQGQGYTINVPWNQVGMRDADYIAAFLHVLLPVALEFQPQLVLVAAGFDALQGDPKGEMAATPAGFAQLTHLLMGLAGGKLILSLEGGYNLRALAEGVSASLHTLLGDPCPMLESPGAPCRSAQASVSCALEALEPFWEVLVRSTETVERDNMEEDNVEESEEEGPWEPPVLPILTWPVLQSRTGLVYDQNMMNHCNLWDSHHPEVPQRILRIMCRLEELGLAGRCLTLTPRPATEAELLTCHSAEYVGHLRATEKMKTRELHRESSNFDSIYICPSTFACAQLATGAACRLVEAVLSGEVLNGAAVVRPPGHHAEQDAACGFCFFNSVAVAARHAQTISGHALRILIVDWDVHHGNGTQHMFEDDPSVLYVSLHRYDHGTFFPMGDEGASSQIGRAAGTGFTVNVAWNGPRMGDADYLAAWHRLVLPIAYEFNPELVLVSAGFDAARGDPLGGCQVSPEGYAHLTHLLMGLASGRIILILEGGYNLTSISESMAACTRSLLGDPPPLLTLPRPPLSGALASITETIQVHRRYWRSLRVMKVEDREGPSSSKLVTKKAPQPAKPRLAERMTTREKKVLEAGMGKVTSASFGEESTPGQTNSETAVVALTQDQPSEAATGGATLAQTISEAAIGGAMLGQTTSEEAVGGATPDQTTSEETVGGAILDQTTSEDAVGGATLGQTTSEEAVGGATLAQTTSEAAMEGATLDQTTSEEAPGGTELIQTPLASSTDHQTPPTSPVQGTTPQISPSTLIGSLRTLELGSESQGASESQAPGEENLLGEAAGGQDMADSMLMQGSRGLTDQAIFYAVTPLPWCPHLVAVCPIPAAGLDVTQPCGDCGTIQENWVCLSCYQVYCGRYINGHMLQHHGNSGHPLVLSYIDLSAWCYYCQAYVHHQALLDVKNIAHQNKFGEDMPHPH
How it was run: (§1)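 The reaction was a 1 h, 30 °C incubation of enzyme, acoustically added peptide and 50 μM p53-derived AMC substrate in pH 8.0 Tris buffer with NaCl, KCl, MgCl2, 1 mg/ml BSA and 1% DMSO. Duplicate values were averaged.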

HDAC1 = molecular target: T2, HDAC1 (Homo sapiens, UniProt Q13547); test: HDAC1 inhibition, full IC50 measurement (Reaction Biology; fluorogenic p53 peptide RHKK(Ac)AMC); settings: for HDAC1 activity raw data (signal): t1/t2 replicates
T2 construct: purchased Reaction Biology Corporation (assay run by the CRO)
How it was run: as §1

HDAC8 = molecular target: T3, HDAC8 (Homo sapiens, UniProt Q9BY41); test: HDAC8 inhibition, full IC50 measurement (Reaction Biology; fluorogenic p53 peptide RHKK(Ac)AMC); settings: for HDAC8 activity raw data (signal): t1/t2 replicates
T3 construct: purchased Reaction Biology Corporation (assay run by the CRO)
T3 sequence (Q9BY41 1-377): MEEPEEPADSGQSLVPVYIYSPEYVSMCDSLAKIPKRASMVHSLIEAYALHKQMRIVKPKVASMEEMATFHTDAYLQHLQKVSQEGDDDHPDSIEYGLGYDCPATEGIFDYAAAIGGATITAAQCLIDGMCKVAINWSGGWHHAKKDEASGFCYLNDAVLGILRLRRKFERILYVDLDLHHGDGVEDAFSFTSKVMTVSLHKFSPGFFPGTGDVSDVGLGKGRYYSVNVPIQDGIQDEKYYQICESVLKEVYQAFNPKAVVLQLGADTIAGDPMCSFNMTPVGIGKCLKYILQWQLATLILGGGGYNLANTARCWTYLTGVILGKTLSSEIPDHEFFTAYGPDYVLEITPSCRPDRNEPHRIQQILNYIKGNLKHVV
How it was run: as §1

[1] = peptide conc. 1.00E-05 M, listed as des4.2.0_t1
[2] = peptide conc. 1.00E-05 M, listed as des4.2.0_t2
[3] = peptide conc. 1.11E-06 M, listed as des4.2.0_t1
[4] = peptide conc. 1.11E-06 M, listed as des4.2.0_t2
[5] = peptide conc. 1.23E-07 M, listed as des4.2.0_t1
[6] = peptide conc. 1.23E-07 M, listed as des4.2.0_t2
[7] = peptide conc. 1.37E-08 M, listed as des4.2.0_t1
[8] = peptide conc. 1.37E-08 M, listed as des4.2.0_t2
[9] = peptide conc. 1.52E-09 M, listed as des4.2.0_t1
[10] = peptide conc. 1.52E-09 M, listed as des4.2.0_t2
[11] = peptide conc. 3.33E-06 M, listed as des4.2.0_t1
[12] = peptide conc. 3.33E-06 M, listed as des4.2.0_t2
[13] = peptide conc. 3.70E-07 M, listed as des4.2.0_t1
[14] = peptide conc. 3.70E-07 M, listed as des4.2.0_t2
[15] = peptide conc. 4.12E-08 M, listed as des4.2.0_t1
[16] = peptide conc. 4.12E-08 M, listed as des4.2.0_t2
[17] = peptide conc. 4.57E-09 M, listed as des4.2.0_t1
[18] = peptide conc. 4.57E-09 M, listed as des4.2.0_t2
[19] = peptide conc. 5.08E-10 M, listed as des4.2.0_t1
[20] = peptide conc. 5.08E-10 M, listed as des4.2.0_t2

T2 sequence (Q13547 whole entry): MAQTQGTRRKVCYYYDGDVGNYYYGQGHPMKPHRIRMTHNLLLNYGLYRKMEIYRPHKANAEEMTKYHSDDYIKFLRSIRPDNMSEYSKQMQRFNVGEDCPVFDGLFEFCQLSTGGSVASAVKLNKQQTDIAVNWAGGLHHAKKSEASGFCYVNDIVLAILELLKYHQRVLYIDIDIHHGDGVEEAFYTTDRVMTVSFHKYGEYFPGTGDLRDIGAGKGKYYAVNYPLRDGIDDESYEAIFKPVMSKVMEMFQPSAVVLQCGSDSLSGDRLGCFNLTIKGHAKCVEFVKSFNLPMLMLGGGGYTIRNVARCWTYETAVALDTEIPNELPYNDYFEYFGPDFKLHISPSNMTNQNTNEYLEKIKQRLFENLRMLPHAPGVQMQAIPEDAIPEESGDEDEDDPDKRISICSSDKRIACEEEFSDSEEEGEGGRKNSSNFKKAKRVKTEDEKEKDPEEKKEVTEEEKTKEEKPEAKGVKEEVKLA

## CC(C)[C@@H]1NC(=O)[C@H](CCCNC(=N)N)NC(=O)[C@@H](CC(=O)O)NC(=O)[C@H](CO)NC(=O)[C@@H](CO)NC(=O)[C@@H](CCC(=O)O)NC(=O)[C@H](Cc2ccc(O)cc2)NC(=O)[C@H](CCCCCS)NC1=O [des4.2.0, SHA-Tyr-dGlu-dSer-Ser-dAsp-Arg-Val] (HELM PEPTIDE1{R.V.[O=C([C@H](CCCCCS)N[*:1])[*:2]].Y.[dE].[dS].S.[dD]}$PEPTIDE1,PEPTIDE1,1:R1-8:R2$$$V2.0)
HDAC6; Conc. 1.00E-05 M, t1
  HDAC6 activity raw data (signal): -7055
HDAC6; Conc. 1.00E-05 M, t2
  HDAC6 activity raw data (signal): -3082
HDAC6; Conc. 1.11E-06 M, t1
  HDAC6 activity raw data (signal): 103285
HDAC6; Conc. 1.11E-06 M, t2
  HDAC6 activity raw data (signal): 106610
HDAC6; Conc. 1.23E-07 M, t1
  HDAC6 activity raw data (signal): 299609
HDAC6; Conc. 1.23E-07 M, t2
  HDAC6 activity raw data (signal): 290391
HDAC6; Conc. 1.37E-08 M, t1
  HDAC6 activity raw data (signal): 820280
HDAC6; Conc. 1.37E-08 M, t2
  HDAC6 activity raw data (signal): 820159
HDAC6; Conc. 1.52E-09 M, t1
  HDAC6 activity raw data (signal): 1558048
HDAC6; Conc. 1.52E-09 M, t2
  HDAC6 activity raw data (signal): 1527304
HDAC6; Conc. 3.33E-06 M, t1
  HDAC6 activity raw data (signal): 43007
HDAC6; Conc. 3.33E-06 M, t2
  HDAC6 activity raw data (signal): 45218
HDAC6; Conc. 3.70E-07 M, t1
  HDAC6 activity raw data (signal): 181567
HDAC6; Conc. 3.70E-07 M, t2
  HDAC6 activity raw data (signal): 190636
HDAC6; Conc. 4.12E-08 M, t1
  HDAC6 activity raw data (signal): 459108
HDAC6; Conc. 4.12E-08 M, t2
  HDAC6 activity raw data (signal): 432840
HDAC6; Conc. 4.57E-09 M, t1
  HDAC6 activity raw data (signal): 1111578
HDAC6; Conc. 4.57E-09 M, t2
  HDAC6 activity raw data (signal): 1107939
HDAC6; Conc. 5.08E-10 M, t1
  HDAC6 activity raw data (signal): 1904356
HDAC6; Conc. 5.08E-10 M, t2
  HDAC6 activity raw data (signal): 1828745
HDAC6; Supp. Table 8
  selectivity for HDAC6 over HDAC8: 80 fold
  selectivity for HDAC6 over HDACs1/2/3: > 10 fold
HDAC6; figure legends, Supp. Tables 1 and 8, read-out: HDAC6 IC50
  IC50: 4.4 nM
HDAC1; Supp. Table 1
  IC50: 58.2 nM
HDAC1; [1]
  HDAC1 activity raw data (signal): 11630
HDAC1; [2]
  HDAC1 activity raw data (signal): 12995
HDAC1; [3]
  HDAC1 activity raw data (signal): 76613
HDAC1; [4]
  HDAC1 activity raw data (signal): 123433
HDAC1; [5]
  HDAC1 activity raw data (signal): 411114
HDAC1; [6]
  HDAC1 activity raw data (signal): 418507
HDAC1; [7]
  HDAC1 activity raw data (signal): 880188
HDAC1; [8]
  HDAC1 activity raw data (signal): 934141
HDAC1; [9]
  HDAC1 activity raw data (signal): 1108126
HDAC1; [10]
  HDAC1 activity raw data (signal): 1086586
HDAC1; [11]
  HDAC1 activity raw data (signal): 45545
HDAC1; [12]
  HDAC1 activity raw data (signal): 50745
HDAC1; [13]
  HDAC1 activity raw data (signal): 212662
HDAC1; [14]
  HDAC1 activity raw data (signal): 215699
HDAC1; [15]
  HDAC1 activity raw data (signal): 634511
HDAC1; [16]
  HDAC1 activity raw data (signal): 682055
HDAC1; [17]
  HDAC1 activity raw data (signal): 995614
HDAC1; [18]
  HDAC1 activity raw data (signal): 978150
HDAC1; [19]
  HDAC1 activity raw data (signal): 1100683
HDAC1; [20]
  HDAC1 activity raw data (signal): 1179300
HDAC8; Supp. Table 1
  IC50: 370 nM
HDAC8; [1]
  HDAC8 activity raw data (signal): 92279
HDAC8; [2]
  HDAC8 activity raw data (signal): 81671
HDAC8; [3]
  HDAC8 activity raw data (signal): 396585
HDAC8; [4]
  HDAC8 activity raw data (signal): 434279
HDAC8; [5]
  HDAC8 activity raw data (signal): 727023
HDAC8; [6]
  HDAC8 activity raw data (signal): 752193
HDAC8; [7]
  HDAC8 activity raw data (signal): 1107635
HDAC8; [8]
  HDAC8 activity raw data (signal): 1031405
HDAC8; [9]
  HDAC8 activity raw data (signal): 1115979
HDAC8; [10]
  HDAC8 activity raw data (signal): 1078250
HDAC8; [11]
  HDAC8 activity raw data (signal): 190039
HDAC8; [12]
  HDAC8 activity raw data (signal): 213758
HDAC8; [13]
  HDAC8 activity raw data (signal): 540901
HDAC8; [14]
  HDAC8 activity raw data (signal): 562035
HDAC8; [15]
  HDAC8 activity raw data (signal): 828599
HDAC8; [16]
  HDAC8 activity raw data (signal): 842494
HDAC8; [17]
  HDAC8 activity raw data (signal): 599790
HDAC8; [18]
  HDAC8 activity raw data (signal): 1026390
HDAC8; [19]
  HDAC8 activity raw data (signal): 1085628
HDAC8; [20]
  HDAC8 activity raw data (signal): 1128546
